Measurements reported in patent publication US20030082625A1, “Method for the pretreatment of a surface for the reduction of non-specific binding by chemical entities” (priority 2001, published 2003).

Key:
[1] = Non-specific binding (NSB) of drugs to ultrafiltration membrane filter, regenerated cellulose (Millipore Ultrafree-MC UFC 3LGC00, 10 k NMWL); format: physicochemical; conditions: for NSB (%) Control / NSB (%) 0.5% Tween / NSB (%) 0.5% BAK / NSB (%) 1% Tween / NSB (%) 1% BAK / NSB (%) 2% Tween / NSB (%) 2% BAK / NSB (%) 5% Tween / NSB (%) 5% BAK / NSB (%) Tween 80 / NSB (%) BAK / NSB (%) SLS / NSB (%) Serum: regenerated cellulose; for NSB (%) 0.5% Tween: pretreatment 0.5% Tween 80; for NSB (%) 0.5% Tween / NSB (%) 1% Tween / NSB (%) 2% Tween / NSB (%) 5% Tween: drug 5 uM; for NSB (%) 0.5% BAK: pretreatment 0.5% benzalkonium chloride; for NSB (%) 0.5% BAK / NSB (%) 1% BAK / NSB (%) 2% BAK / NSB (%) 5% BAK: drug 10 uM; for NSB (%) 1% Tween: pretreatment 1% Tween 80; for NSB (%) 1% BAK: pretreatment 1% benzalkonium chloride; for NSB (%) 2% Tween: pretreatment 2% Tween 80; for NSB (%) 2% BAK: pretreatment 2% benzalkonium chloride; for NSB (%) 5% Tween: pretreatment 5% Tween 80; for NSB (%) 5% BAK: pretreatment 5% benzalkonium chloride; for NSB (%) Tween 80: pretreatment with 0.5% Tween 80; for NSB (%) BAK: pretreatment with 0.5% benzalkonium chloride; for NSB (%) SLS: pretreatment with 0.5% sodium lauryl sulfate; for NSB (%) Serum: pretreatment with human serum; for NSB (%) RC: regenerated cellulose membrane, drug concentration 10 uM
Method: (§1) Various experiments were performed using the following reagents, surfactants and reservoirs (also comprising ultrafiltration units): human serum, pH 7.4 phosphate buffered saline (PBS), drug solution (i.e. compound) in serum at a concentration of 1-50 μM, and drug solution in PBS at a concentration of 1-50 μM were used as reagents. Surfactant solutions were 0.01-20% Tween 80 (polyoxyethylene 20 sorbitan monooleate) in PBS as neutral solution, 0.01-20% Benzalkonium chloride (BAK) in PBS as cationic solution, 0.01-20% Sodium lauryl sulfate (SLS) in PBS as anionic solution. An ultrafiltration reservoir (Millipore, Ultrafree-MC) comprising regenerated cellulose (UFC 3LGC00, 10 k NMWL) or polyethersulfone (UFC 3BSC00, 10 k NMWL) was used.
(§2) The upper ultrafiltration cup was connected to the reservoir tube and 25 μL surfactant solution was added to each well. After bedewing for 5 min, the reservoir tube containing the ultrafiltration cup was centrifuged for 10 min at 3000 g and room temperature.
(§3) 200 μL of PBS was added to each ultrafiltration cup and equilibrated for 30 min. Remaining PBS was removed from the ultrafiltration cup by gentle tapping the cup. The upper ultrafiltration cup was reconnected to a new reservoir tube, and 400 μL drug solution (1-50 μM) in serum or PBS was applied and equilibrated for 1 hr at room temperature.
(§4) The ultrafiltration tube was centrifuged for 18 min at 3000 g at room temperature. 50 μL sample was taken from the receiver (filtrate) and donor (drug solution in serum or PBS) for bioanalysis. Non-specific binding was calculated as follows:
(§5) NSB=(Cf1-Cf2)/Cf1, where NSB: non specific binding to membrane filter at pH 7.4 isotonic PBS, Cf1: free drug before filtration, and Cf2: free drug in the filtrate after filtration

[2] = Non-specific binding (NSB) of drugs to ultrafiltration membrane filter, polyethersulfone (Millipore Ultrafree-MC UFC 3BSC00, 10 k NMWL); format: physicochemical; conditions: no pretreatment, drug concentration 10 uM
Method: as §1, §2, §3, §4, §5

[3] = no pretreatment, drug concentration 50 uM
[4] = no surfactant pretreatment, drug concentration 5 uM, pH 7.4 PBS

Structure (SMILES)	NSB (%) Control [1, 3] [%]	NSB (%) Control [1, 4] [%]	NSB (%) 0.5% Tween [1] [%]	NSB (%) 0.5% BAK [1] [%]	NSB (%) 1% Tween [1] [%]	NSB (%) 1% BAK [1] [%]	NSB (%) 2% Tween [1] [%]	NSB (%) 2% BAK [1] [%]	NSB (%) 5% Tween [1] [%]	NSB (%) 5% BAK [1] [%]	NSB (%) Tween 80 ([1]; drug concentration 5 uM) [%]	NSB (%) BAK ([1]; drug concentration 5 uM) [%]	NSB (%) SLS ([1]; drug concentration 50 uM) [%]	NSB (%) Serum ([1]; drug concentration 50 uM) [%]	NSB (%) RC ([1]; no pretreatment) [%]	NSB (%) PES [2] [%]
CC(C)NCC(O)COc1cccc2ccccc12 (centres unmarked) [Propranolol]	91	91	66	14	65	15	60	5	52	10	46.5	13	84	90	91	69
Cn1c(=O)c2[nH]cnc2n(C)c1=O [Theophylline]	–	8	–	–	–	–	–	–	–	–	0	0	–	–	–	–
Cc1cc(=O)n(-c2ccccc2)n1C [Antipyrine]	–	10	–	–	–	–	–	–	–	–	0	0	–	–	–	–
COc1ccc(CCN(C)CCCC(C#N)(c2ccc(OC)c(OC)c2)C(C)C)cc1OC (centres unmarked) [Verapamil]	–	–	–	43	–	34	–	25	–	12	–	–	–	–	–	–
CC(C)Cc1ccc(C(C)C(=O)O)cc1 (centres unmarked) [Ibuprofen]	–	29	–	–	–	–	–	–	–	–	2.3	–	–	–	–	–
C[C@]12CCC(=O)C=C1CC[C@@H]1[C@@H]2[C@@H](O)C[C@@]2(C)[C@H]1CC[C@]2(O)C(=O)CO [Hydrocortisone]	87	87	52	30	35	22	33	16	30	14	21.1	25	62	84	87	71
CC(C(=O)O)c1cccc(C(=O)c2ccccc2)c1 (centres unmarked) [Ketoprofen]	–	34	–	–	–	–	–	–	–	–	4.1	–	–	–	–	–
Cn1c(=O)c2c(ncn2C)n(C)c1=O [Caffeine]	–	17	–	–	–	–	–	–	–	–	0	0	–	–	–	–
COc1cc([C@@H]2c3cc4c(cc3[C@@H](O[C@@H]3O[C@@H]5CO[C@@H](C)O[C@H]5[C@H](O)[C@H]3O)[C@H]3COC(=O)[C@H]23)OCO4)cc(OC)c1O [Etoposide]	91	91	–	–	–	–	–	–	–	–	23.1	28.3	–	93	91	93
CC[C@]1(O)C[C@@H]2CN(CCc3c([nH]c4ccccc34)[C@@](C(=O)OC)(c3cc4c(cc3OC)N(C)[C@H]3[C@@](O)(C(=O)OC)[C@H](OC(C)=O)[C@]5(CC)C=CCN6CC[C@]43[C@@H]65)C2)C1 [Vinblastine]	–	95	–	82	–	79	–	68	–	59	95.2	64	–	–	95	95
